From PubChem BioAssay (NCI)
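Interpolation was linear, between the two tested concentrations surrounding the appropriate level; five concentrations were tested over 48 hours in 96-well plates. TGI is the concentration that stops growth completely.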

What was measured:
Assay in all cases: DTP human tumour cell line panel, 48 h
[1] = test system: A498 renal
[2] = test system: A549 NSCLC
[3] = test system: ACHN renal
[4] = test system: CCRF-CEM leukemia
[5] = test system: DMS 114 small cell lung
[6] = test system: DMS 273 small cell lung
[7] = test system: EKVX NSCLC
[8] = test system: HCT-116 colon
[9] = test system: HL-60(TB) leukemia
[10] = test system: HOP-62 NSCLC
[11] = test system: HOP-92 NSCLC
[12] = test system: HT29 colon
[13] = test system: IGROV1 ovarian
[14] = test system: KM12 colon
[15] = test system: M14 melanoma
[16] = test system: M19-MEL melanoma
[17] = test system: MOLT-4 leukemia
[18] = test system: NCI-H23 lung
[19] = test system: NCI-H460 lung
[20] = test system: NCI-H522 lung
[21] = test system: OVCAR-5 ovarian
[22] = test system: OVCAR-8 ovarian
[23] = test system: RXF 393 renal
[24] = test system: RXF-631 renal
[25] = test system: SF-268 CNS
[26] = test system: SF-295 CNS
[27] = test system: SK-MEL-28 melanoma
[28] = test system: SK-OV-3 ovarian
[29] = test system: SNB-19 CNS
[30] = test system: SNB-78 CNS
[31] = test system: SR leukemia
[32] = test system: TK-10 renal
[33] = test system: U251 CNS
[34] = test system: UACC-257 melanoma
[35] = test system: UACC-62 melanoma
[36] = test system: UO-31 renal
[37] = test system: 786-0 renal
[38] = test system: CAKI-1 renal
[39] = test system: DLD-1 colon
[40] = test system: HCC-2998 colon
[41] = test system: HCT-15 colon
[42] = test system: K-562 leukemia
[43] = test system: LOX IMVI melanoma
[44] = test system: LXFL 529 NSCLC
[45] = test system: MALME-3M melanoma
[46] = test system: OVCAR-3 ovarian
[47] = test system: OVCAR-4 ovarian
[48] = test system: RPMI-8226 leukemia
[49] = test system: SF-539 CNS
[50] = test system: SK-MEL-2 melanoma
[51] = test system: SK-MEL-5 melanoma
[52] = test system: SN12C renal
[53] = test system: SNB-75 CNS
[54] = test system: SW-620 colon
[55] = test system: COLO 205 colon
[56] = test system: KM20L2 colon
[57] = test system: NCI-H226 lung
[58] = test system: XF 498 CNS
[59] = test system: HOP-18 NSCLC

Measured: TGI

CCC1=CC2CC(C(=O)OC)C1(N(C)C)C2=O (stereo not drawn)
not listed: [37] | [38] | [39] | [40] | [41] | [42] | [43] | [44] | [45] | [46] | [47] | [48] | [49] | [50] | [51] | [52] | [53] | [54] | [55] | [56] | [57] | [58] | [59]
> 100 µM: all other assays above

CC(CCCOC(c1ccccc1)(c1ccccc1)c1ccccc1)OC(=O)Nc1cc([N+](=O)[O-])cc([N+](=O)[O-])c1 (stereo not drawn)
59.5 µM: [20]
73.2 µM: [19]
72.1 µM: [38]
54.4 µM: [27]
85.3 µM: [9]
57.9 µM: [28]
72.3 µM: [1]
97 µM: [7]
83.8 µM: [33]
72.5 µM: [53]
83.2 µM: [45]
93.5 µM: [3]
85.1 µM: [34]
58.7 µM: [18]
83.4 µM: [10]
78.9 µM: [50]
50.2 µM: [35]
44.6 µM: [51]
94.9 µM: [37]
not listed: [11] | [21] | [30] | [32] | [55] | [56] | [57] | [58] | [59]
> 100 µM: all other assays above

COc1ccc(COCC(Cn2ccnc2)OCc2ccc(C(=O)O)cc2)cc1 (stereo not drawn)
not listed: [6] | [29] | [31] | [46] | [59]
> 100 µM: all other assays above

CSc1nc(-c2ccccc2)c2c(n1)-c1ccccc1CC2
not listed: [3] | [6] | [30] | [40] | [41] | [49]
> 100 µM: all other assays above
